Test results as given in patent US12290587B2, “Anti-aging cosmetic compositions” (GIVAUDAN SA, priority 2019, dated 2025).

Tested on: Normal Human Dermal Fibroblasts
Experiment: Mitochondrial mass (MitoTracker Green FM) in Normal Human Dermal Fibroblasts
Type: cell-based
Settings: 20 mM, insulin 100 nM
Procedure: Normal Human Dermal Fibroblasts were isolated from skin biopsy coming from a breast reduction surgery on a person. 10′000 cells per well were seeded in a black 96-wells plate with DMEM (Dulbecco's Modified Eagle's Medium, Gibco) supplemented with 10% FCS (Fetal Calf Serum, Biowest) and 1% antibiotics (Sigma Aldrich) and were cultured for 72 hours in an incubator at 37° C. in a humid atmosphere containing 5% CO2. Cells were then rinsed two times with PBS (Phosphate Buffer Saline) before being incubated with FCS-free DMEM medium overnight in the same incubator. On the next day, the cells were treated with (i) mannose at 20 mM, (ii) mannose-6-phosphate at 20 mM or (iii) the above-mentioned Mannose-6-Phosphate complex at 20 mM (n=3) in the presence of insulin (100 nM). After 1 hour and 48 hours of treatment, MitoTracker™ Green FM (ThermoFisher) was added directly in each well for a final concentration of 200 nM and the plate was incubated in the dark in the incubator for 15 minutes. Cells were then rinsed off two times with PBS and each well was filled with 200 μl PBS. Fluorescence intensity of MitoTracker™ Green FM was measured with a microplate reader (Excitation wavelength: 488 nm/Emission wavelength: 525 nm). In this study, the mitochondrial mass in cells was determined using the fluorescence intensity emitted by MitoTracker™ Green FM.

SMILES: O=C[C@@H](O)[C@@H](O)[C@H](O)[C@H](O)COP(=O)(O)O [mannose-6-phosphate]
- decrease of MitoTracker Green FM specific signal (mitochondrial mass) (1 hour treatment): −53%
- decrease of MitoTracker Green FM specific signal (mitochondrial mass) (48 hours of treatment): −60%
